We go through 4 compounds from patent publication US4347178A, “Compounds and methods of making” (Burroughs Wellcome Co., priority 1980, dated 1982).

Molecules are shown by their SMILES.

Test [1] relates to anti-compound 2 sera and anti-compound 3 sera. Nature of the test: RIA of bupropion using 125I-labeled bupropion competitors with anti-compound 2 sera and anti-compound 3 sera. Format: biochemical. As to conditions: for RIA sensitivity compared with the compound 10 system: substitution of 7 or 8 as competitor, anti-compound 2 and anti-compound 3 sera. The protocol: (§1) Samples of six standard solutions of bupropion in blank plasma having concentrations of 0.39 to 50 ng/ml) are pipetted (0.1 ml each) in duplicate into 12×75 mm plastic tubes. Duplicate non-specific binding (no antibody) and maximum binding tubes (no unlabeled bupropion) receive 0.1 ml blank plasma. Spiked plasma controls at several concentrations of (e.g., 1.0, 10.0, and 100 ng/ml) and plasma samples for assay (diluted into the standard range with blank plasma if necessary) are assayed in duplicate. After being placed in an ice bath, all tubes receive (in order) 0.2 ml ^3 H bupropion (416 pg. containing approximately 10^4 cpm) and 0.7 ml anti-bupropion serum (raised to a ring-functionalized immunogen according to the present invention) (at pre-determined dilutions such that approximately 40% of the ^3 H bupropion added is bound), both in assay buffer (0.05 M phosphate-bufferedisotonic saline, containing 0.01 M EDTA and 0.1% gelatin, pH 7.0). Non-specific binding tubes receive 0.7 ml assay buffer.) Following incubation either at 25° C. for 2 hours or overnight at 4° C., bound and free ^3 H bupropion are separated by incubation for 10 min at 0° C. with 0.5 ml ice-cold dextran-coated charcoal solution (0.25% dextran, 5 mg/ml charcoal, in assay buffer) followed by centrifugation for 10 minutes at 4° C. […] The supernatants, containing antibody-bound ^3 H bupropion are carefully decanted into liquid scintillation cocktail for quantitation of ^3 H. After counts (minus average non-specific binding cpm) are expressed as percentages of average maximum binding cpm, bupropion concentrations in plasma samples and spiked controls are read from a standard curve (log concentration vs percent average maximum binding).
RIA's have been run according to the method of Example X utilizing ^125 I labeled bupropion competitors of the present invention in conjunction with antisera obtained following immunization with immunogens of the present invention. […] Following the ethanol precipation of antibody-bound ^125 I-bupropion competitior at equilibrium, ^125 I in the protein pellets was quantified.

The subject of another test is anti-compound 1 sera. Nature of the test: RIA of bupropion using compound 6 with anti-compound 1 sera. Format: biochemical. The procedure: as §1, with “7.0).” for “7.0). Non-specific binding tubes receive 0.7 ml assay buffer.) Following incubation either at 25° C. for 2 hours or overnight at 4° C., bound and free ^3 H bupropion are separated by incubation for 10 min at 0° C. with 0.5 ml ice-cold dextran-coated charcoal solution (0.25% dextran, 5 mg/ml charcoal, in assay buffer) followed by centrifugation for 10 minutes at 4° C.”, “binding). […]” for “binding).”

For the compound `CC(NC(C)(C)C)C(=O)c1ccc(O)c([125I])c1` (stereo not drawn) [compound 9, ^125 I-α-t-Butylamino-3-iodo-4-hydroxypropiophenone], the “RIA sensitivity relative to the compound 10 (3H bupropion) assay system” value in test [1] (in conjunction with either antisera (anti-compound 2 or anti-compound 3)) was “approximately ten”.
With `CC(NC(C)(C)C)C(=NOCC(=O)NCCc1ccc(O)c([125I])c1)c1cccc(Cl)c1` (stereo not drawn) [compound 6, α-t-Butylamino-3-chloropropiophenone-carboxymethyloxime-^125 I-tyramine amide], the RIA sensitivity result with anti-compound 1 sera is listed as “least sensitive RIA”.
For `CC(NC(C)(C)C)C(=O)c1ccc(CCCOC(=O)CCC(=O)NCCc2ccc(O)c([125I])c2)c(Cl)c1` (stereo not drawn) [compound 8, α-t-Butylamino-3-chloro-4-γ-hydroxypyropylpropiophenone-hemisuccinate-^125 I-tyramine amide], the “RIA sensitivity compared with the compound 10 system” value in test [1] is “approximately equal to that obtained with the compound 10 system”.
Still for that read-out and setting: to `CC(NC(C)(C)C)C(=O)c1ccc(OCC(=O)NCCc2ccc(O)c([125I])c2)c(Cl)c1` (stereo not drawn) [compound 7, α-t-Butylamino-3-chloro-4-carbomethoxypropiophenone-^125 I-tyramine amide] belongs “approximately equal to that obtained with the compound 10 system”.
